US20210269479A1, “USE OF CY[…] FOR TREATING CANCER” (Hepion Pharmaceuticals, Inc., priority 2020, published 2021)
Entries after “also recorded” stand apart in the source; their conditions may differ.

Assays:
[1] = test system: human precision cut liver slices (PCLS); assay: Sirius red histological staining of PCLS (tissue fibrosis); format: cell-based
Experimental: (§1) PCLS were obtained from 5 human donors who underwent resection of liver cancer. Replicate slices were collected from healthy margins of the resections and cultured for 4 or 6 days depending on the experimental protocol. In the Nonstimulation Protocol slices were cultured for 6 days and treated for the entire period with DMSO vehicle or 5 μM CRV431. In the Stimulation Protocol slices were rested for 1 day and then administered the cytokines, TGFβ and PDGF-BB, for 3 days to stimulate inflammation and fibrosis. DMSO vehicle, CRV431 (1 and 5 μM), Alk5i (10 μM), obeticholic acid (5 μM), elafibranor (5 μM), resmetirom (5 μM), and Aramchol (5 μM) were administered individually as drug treatments in the Stimulation Protocol concurrent with TGFβ+PDGF-BB. Culture medium treatments were replaced daily.
(b) Sirius red histological staining. […] Sirius red was quantified morphometrically in the histological sections as the percentage area with Sirius red staining in 10 sections from each treatment. In the Nonstimulation Protocol the quantity of Sirius red staining was expressed relative to the vehicle group. In the Stimulation Protocol the quantity of Sirius red staining was expressed relative to nonstimulated PCLS (0%) and TGFβ+PDGF-BB-stimulated+vehicle PCLS (100%). Results are shown in FIG. 1B (Sirius red staining for tissue fibrosis).

[2] = test system: human precision cut liver slices (PCLS); assay: Biomarker secretion from PCLS into culture medium (ELISA); format: cell-based; conditions: collagen1α1, fibronectin, hyaluronic acid, IL-6, MCP-1
Experimental: as §1
(a) Biomarker secretion. Spent culture medium was collected daily from duplicate slices for each treatment. ELISAs were used to quantify secretion of monocyte chemoattractant protein (MCP-1), interleukin-6 (IL-6), tissue inhibitor of metalloproteinase-1 (TIMP1), hyaluronic acid, fibronectin, and collagen 1α1. For each donor the mean level of biomarker secretion in each treatment group was expressed as a percentage change relative to DMSO vehicle, the percentages averaged for all donors, and finally the mean daily percentage change calculated from all days of evaluation. […]

[3] = test system: liver tumors (likely hepatocellular carcinoma); assay: Liver tumor burden in streptozotocin/high-fat diet NASH mice; format: in vivo, C57BL/6J male mice
Experimental: NASH was initiated in 2-day-old C57BL/6J male mice by intraperitoneal injection with […] streptozotocin (S0130; Sigma-Aldrich) to disrupt pancreatic β cells, induce diabetes, and promote adiposity in the liver. Mice were weaned at 3 weeks of age and begun on a high-fat diet with 60% kcal fat (D12492N; Research Diets) for the duration of the studies. Additionally, mice with a regular diet (D12450KN; Research Diets) and without streptozotocin were included as negative controls. CRV431 was dissolved in a self-microemulsifying drug vehicle and then diluted with PBS and administered daily by oral gavage at 50 mg/kg per day. The start time and duration of vehicle and CRV431 treatments varied depending on the study.
In two separate experiments, tumor burden at the end of treatment was assessed by the number of tumors (FIGS. 11A and 12A) and a composite score based on the number and size of tumors (0-7 scale; FIGS. 11B and 12B).

[4] = 50 mg/kg per day oral gavage, weeks 20 to 30

CC[C@@H]1NC(=O)[C@H]([C@H](O)[C@H](C)CCCCCCNC(C)=O)N(C)C(=O)[C@H](C(C)C)N(C)C(=O)[C@H](CC(C)C)N(C)C(=O)[C@H](CC(C)C)N(C)C(=O)[C@@H](C)NC(=O)[C@H](C)NC(=O)[C@H](CC(C)C)N(C)C(=O)[C@H](C(C)C)NC(=O)[C@H](CC(C)C)N(C)C(=O)[C@@H](C)N(C)C1=O [CRV431]
tissue fibrosis vs vehicle-treated slices ([1]; 6 days of culture, absence of exogenous TGFβ+PDGF-BB): less fibrosis than vehicle-treated slices
prevention of TGFβ+PDGF-BB-induced tissue fibrosis ([1]; Stimulation Protocol, compared with other NASH drug candidates): most effective of five NASH drug candidates
secretion of inflammation and fibrosis biomarkers [2]: reduced secretion of collagen1α1, fibronectin, hyaluronic acid, IL-6, and MCP-1; also recorded: decreased the mean daily secretion and gene expression of all markers
decrease of tumor burden (score combining tumor number and size) [3, 4]: 52%
livers lacking tumors [3, 4]: 2 of 10
number of liver tumors vs vehicle [3, 4]: half the number of tumors
tumor size vs vehicle [3, 4]: smaller tumors on average
Tumor number, mean ([3]; 50 mg/kg/day, end of treatment): 4.80
Tumor score, mean (0-7 scale) ([3]; 50 mg/kg/day, end of treatment): 2.40
